Assay results reported in patent publication US10772944B2, “Bacterial ghosts for the treatment of cancer” (BIRD-C GMBH, priority 2016, dated 2020).

Tested on: CT26 mouse colorectal carcinoma
Conditions: one cycle: BGs 4x10^8 at D4, oxaliplatin 6 mg/kg i.p. at D4, D6; harvest D18
Description: Treatment of mice started three days after tumor inoculation and comprised of either one or two cycles of BGs administration combined with either two or four drug administrations, respectively. Furthermore, part of mice was treated with either two or four drug administrations without the extra addition of BGs. Survival and animal behavior were monitored until the section day; animal weights were documented once per week. Tumor presence and burden were assessed at the section day including organ screening and photo documentation.
The mice were inoculated intraperitoneally (in lower left quadrant) with 1×10^5 cells of CT26 mouse colorectal carcinoma cells and randomly distributed into the seven groups (D1).
Three days after tumor inoculation (D4) the first group of animals (Group #1) received 100 μl of 5% glucose solution for injection (solvent) administered intraperitoneally at the same place as used for tumor inoculation.
Mice from Group #2.1 were injected intraperitoneally at D4 and D6 (five days after tumor inoculation) with 6 mg/kg oxaliplatin reconstituted in 100 μl of 5% glucose solution for injection at the same place as used for tumor inoculation. […]

## O=C1[O][Pt]2([NH][C@@H]3CCCC[C@H]3[NH]2)[O]C1=O [oxaliplatin]
  tumor burden (weight of collected tumor tissues) versus control: tumor mass reduction detected
